According to ChEMBL document CHEMBL1151334, “Arugosin F: a new antifungal metabolite from the coprophilous fungus Ascodesmis sphaerospora” (1998):

Experiments:
Type in all cases: functional
Ascobolus = test: Antifungal activity against Ascobolus furfuraceus NRRL 6460 at 200 ug/disk by paper disk assay
Sordaria fimicola = test: Antifungal activity against Sordaria fimicola NRRL 6459 at 200 ug/disk by paper disk assay
Bacillus subtilis = test: Antibacterial activity against Bacillus subtilis ATCC 6051 at 200 ug/disk by standard disk assay; conditions: read-out: IZ
Staphylococcus aureus = test: Antibacterial activity against Staphylococcus aureus ATCC 29213 at 200 ug/disk by standard disk assay; conditions: read-out: IZ

| SMILES | inhibition at 200 µg/disc (Ascobolus) | Activity (Sordaria fimicola) | zone of inhibition at 200 µg/disc (Bacillus subtilis) | zone of inhibition at 200 µg/disc (Staphylococcus aureus) |
| --- | --- | --- | --- | --- |
| Cc1cc(CO)c2c(=O)c3c(O)cccc3oc2c1 | 20% | 33% | 7 mm | – |
| Cc1cc(O)c2c(c1)C(O)Oc1cccc(O)c1C2=O (configuration not stated) [ARUGOSIN F] | 100% | 50% | 15 mm | 7 mm |
